“Also recorded” adds a separate entry of the source.

The test system of this assay is MLO-Y4 cells. The assay is described as follows: Integrin-like signaling (pFAK, pZyxin, pAKT, pCREB) in MLO-Y4 cells, immunoblot. In kind it is cell-based. Particulars: MLO-Y4, inhibitor pre-treatment 10 minutes before irisin. Here is the method: Integrin heterodimer binds to its ligand. The interaction results in phosphorylation of FAK and Zyxin, followed by phosphorylation of AKT (at T308) and CREB. PM is plasma membrane. FIG. 2C and FIG. 2D show the immunoblots. MLO-Y4 cells were seeded and incubated until 60% cell density. The cells were incubated with serum free medium (FreeStyle™ 293 medium) for 4 hours and were treated for indicated time with 10 nM norepinephrine or irisin (FIG. 2C) or indicated concentrations of irisin for 10 minutes (FIG. 2D). Cells were lysed to detect the indicated protein level using immunoblot analysis.
Certain materials and methods were used to generate the results described herein. For example, the data shown in FIG. 1A resulted from MLO-Y4 (an osteocyte-like cell line) cells treated with the indicated concentration of irisin and hydrogen peroxide for 4 hours. Cells were stained with Hoechst 33342 (ThermoFisher Scientific, catalog number H3570) and Eth-D1 (ThermoFisher Scientific, catalog number E1169) and analyzed to determine the percentage of cell death using ImageJ. The data shown in FIG. 2D resulted from MLO-Y4 incubated in serum free medium (FreeStyle™ 293 expression medium, ThermoFisher Scientific, catalog number 12338018) for 4 hours followed by treatment of indicated concentrations of irisin for 10 minutes. Cells were lysed to detect the indicated protein level using immunoblot analysis (Cell Signaling Technology, catalog numbers 3283S, 3285S, 8467S, 3553S, 9198S, and 9104S; Abcam, catalog number ab49900-100ul). The data shown in FIG. 3 resulted from 3T3-F442A cells incubated in serum free medium for 4 hours followed by treatment of indicated concentrations of irisin for 10 minutes. Cells were lysed by RIPA buffer to detect the indicated protein level using immunoblot analysis. The data shown in FIG. 4 were generated from 100 nM flag-tagged irisin (Enzo life sciences, catalog number ADI-908-307-3010) incubated with 5 nM of the indicated 6 his-tag integrins (R & D Systems Inc., catalog numbers 7064-AB-025, 5668-A4-050, 5438-A9-050, 6357-AB-050, and 6579-AV-025) in the presence of RGDS peptide (R & D Systems Inc., catalog number 3498/10) or its control peptide (Enzo Life Sciences, catalog Number BML-P701-0005) followed by immunoprecipitation using 6 his-tag beads (ThermoFisher Scientific, catalog number R901-01). Co-precipitated irisin was analyzed by immunoblot analysis against flag tag (Sigma Aldrich, catalog number A8592). The data shown in FIGS. 5A and 5B were generated from MLO-Y4 cells treated and analyzed as in the experiments used to generate the data shown in FIG. 2D, except that pre-treatment of 100 nM RGDS (FIG. 5A) or echistatin (R & D Systems Inc., catalog number 3202/100U) (FIG. 5B) for 10 minutes was performed before irisin treatment. The data shown in FIGS. 6A and 6B were generated from MLO-Y4 cells incubated in serum free medium for 3 hours followed by treatment of indicated time of 10 nM irisin for 16 hours. RNAs were extracted from the cells and the sclerostin mRNA level was analyzed by qPCR (FIG. 6A) or treated and analyzed as in (FIG. 6A), except that pre-treatment of 10 μM RGDS, RGDyK (Selleck, catalog number S7844), or echistatin was performed for 10 minutes before irisin treatment. The data shown in FIGS. 7A and 7B were generated from 8 week-old mice injected with the indicated dose of irisin for 6 days. Tibias were collected and treated with collagenase to obtain mRNA from the osteocyte-enriched bones. Sclerostin mRNA level was analyzed by qPCR (FIG. 7A). Serum was collected to analyze the sclerostin protein level using ELISA kit (R&D Systems Inc., catalog number MSST00) (FIG. 7B). The data shown in FIG. 8 were generated from 8 week-old mice injected with the indicated dose of irisin for 6 days. Epididymal fats were collected, RNAs were extracted from the tissues, and mRNA levels of the indicated genes were analyzed by qPCR. […]
Background: Immunoblotting shows a protein as a band on a membrane.

As to `N=C(N)NCCC[C@@H]1NC(=O)[C@H](CCCCN)NC(=O)[C@@H](Cc2ccc(O)cc2)NC(=O)[C@H](CC(=O)O)NC(=O)CNC1=O` [cyclo RGDyK], the “effect of integrin inhibitor on irisin-induced signaling (phosphorylation of FAK, Zyxin, CREB)” value is “block irisin-induced signaling”.
The same measure for “RGDS peptide: classical integrin competitive inhibitory peptide, commercially available form of the RGD peptide”: “most irisin signaling in osteocytes was inhibited; also recorded: dramatically suppressed”.

Source of the values: patent US20210063414A1, “METHODS FOR PREVENTING AND/OR TREATING BONE LOSS CONDITIONS BY MODULATING IRISIN” (Dana-Farber Cancer Institute, Inc., priority 2018, published 2021).
